Literature values in patent publication US10294298B2, “Human PAC1 antibodies” (AMGEN INC., priority 2013, dated 2019).

What was measured:
[1] = molecular target: T1, VPAC1 (Homo sapiens, UniProt P32241); details: receptor agonist; background table
T1 sequence (P32241 31-457): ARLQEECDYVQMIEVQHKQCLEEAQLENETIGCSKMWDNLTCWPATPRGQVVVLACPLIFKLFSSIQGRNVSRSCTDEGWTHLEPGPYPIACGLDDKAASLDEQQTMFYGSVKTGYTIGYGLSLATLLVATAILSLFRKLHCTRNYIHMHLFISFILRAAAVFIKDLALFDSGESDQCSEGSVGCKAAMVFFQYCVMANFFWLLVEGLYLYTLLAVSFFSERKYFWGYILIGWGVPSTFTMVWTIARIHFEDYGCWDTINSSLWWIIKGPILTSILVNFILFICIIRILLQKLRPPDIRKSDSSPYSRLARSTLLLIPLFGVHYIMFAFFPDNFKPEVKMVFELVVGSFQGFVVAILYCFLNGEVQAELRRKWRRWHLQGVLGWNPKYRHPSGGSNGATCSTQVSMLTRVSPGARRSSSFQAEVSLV

[2] = molecular target: T2, VPAC2 (Homo sapiens, UniProt P41587); details: receptor agonist; background table
T2 sequence (P41587 24-438): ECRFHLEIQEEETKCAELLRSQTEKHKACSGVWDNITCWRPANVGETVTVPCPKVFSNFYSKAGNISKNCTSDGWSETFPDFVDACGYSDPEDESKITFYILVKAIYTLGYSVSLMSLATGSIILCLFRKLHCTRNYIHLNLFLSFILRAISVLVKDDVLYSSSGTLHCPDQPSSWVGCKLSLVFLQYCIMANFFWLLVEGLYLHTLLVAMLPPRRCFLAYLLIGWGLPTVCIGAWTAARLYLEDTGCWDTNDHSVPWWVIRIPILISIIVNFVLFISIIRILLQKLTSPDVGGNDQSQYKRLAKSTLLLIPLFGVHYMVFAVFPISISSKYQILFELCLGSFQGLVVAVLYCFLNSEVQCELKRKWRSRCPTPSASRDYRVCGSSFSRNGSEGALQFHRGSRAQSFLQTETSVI

Maxadilan
EC50 [1]: > 1000 nM | EC50 [2]: > 1000 nM
